According to publication PMC7767381, “Exploring the Anti-Cancer Mechanism of Novel 3,4′-Substituted Diaryl Guanidinium Derivatives” (Pharmaceuticals, 2020):

How the values were obtained:
MCF-7 cells = assay: alamarBlue cell viability assay, MCF-7; type: cell-based; conditions: Homo sapiens, MCF7, 72 h, read-out: MCF-7 IC50 ± SEM
Source text: (§1) Cell viability and proliferation assays were used to evaluate the in vitro cytotoxicity of all synthesised compounds in a variety of different cancer cell lines using the alamarBlue® viability assay and the results are presented in Table 1 and Table 2. The sensitivity of cancer cells to drugs can often be compromised by PIK3CA, Ras and BRAF mutations. To determine whether such mutations are critical to the efficacy of our new compounds we tested them in a range of cancerous cell lines expressing different mutations. Firstly, we used the HL-60 (human promyelocytic leukaemia, NRas mutated) cell line for general cytotoxicity screening of all compounds. […] Lastly, toxicity against MCF-10A, which is a non-tumorigenic epithelial cell line, was also assessed for one of the most promising compounds (4). The graphs representing the viability results with the HL-60, MCF-7, HeLa, HCT-116, and HKH-2 cancer cell lines for compound 1 and derivatives 2, 3, and 4 are shown in Figures S7–S10 (ESI).
(§2) Cells were counted and seeded in 96-well plates at a density of 2 × 10^5 cells/mL for HL-60, 2.5 × 10^4 cells/mL for MCF-7, MCF10A and HeLa, 1 × 10^5 cells/mL for HCT116 and HKH-2, all of them in their respective media. The 96-well plates were then treated with a 1:100 dilution of stock concentrations of drugs or EtOH (1% v/v)/DMSO (0.1% v/v) as vehicle control in triplicate. Three blank wells containing 200 µL RPMI with no cells were also set-up as blanks. After a 72 h incubation, 20 µL of alamarBlue was added to each well. The plates were incubated in darkness at 37 °C for 4–5 h using a Molecular Devices microplate reader, the fluorescence (F) was then read at an excitation wavelength of 544 nm and an emission wavelength of 590 nm. Cell viability was then determined by subtracting the mean blank fluorescence (Fb) from the treated sample fluorescence (Fs) and expressing this as a percentage of the fluorescence of the blanked vehicle control (Fc). […] The results were then plotted as a nonlinear regression, sigmoidal dose-response curves on Prism, from which the IC50 value for each drug was determined.
(§3) The MCF-7 (human breast tumour) cell line was obtained from Prof. Mary Meegan, School of Pharmacy, TCD. It was maintained in Roswell Park Memorial Institute (RPMI) 1640 medium with stable glutamate (GlutaMax I) supplemented with 10% (v/v) fetal bovine serum (FBS), 1% (v/v) penicillin/ streptomycin (pen-strep) and 2 mM L-glutamine.
(§4) The HeLa (human epitheloid cervix carcinoma) cell line was obtained from Prof. Thorfinnur Gunnlaugsson, School of Chemistry TCD. It was maintainedin Dulbecco's Modified Eagle's Medium (DMEM) supplemented with 10% (v/v) fetal bovine serum (FBS) and 1%(v/v) penicillin/ streptomycin (pen-strep).
(§5) The HCT116and HKH-2 (human colon cancer cells) cell lines were obtained from Prof. James Murray, School of Biochemistry and Immunology TCD. They were maintainedin Dulbecco's Modified Eagle's Medium (DMEM) supplemented with 10% (v/v) fetal bovine serum (FBS), 1% (v/v) penicillin/ streptomycin (pen-strep), 1% (v/v) sodium pyruvate (NaPyr), 1% (v/v) L-glutamine (L-Glu) and, only for HKH-2, 0.6 mg/mL geneticine (G418).
MCF-10A (human breast epithelial) cell line was obtained from Prof. Mary Meegan, School of Pharmacy, TCD. It was cultured in Dulbecco’s Modified Eagle Medium/Nutrient Mixture F-12 (DMEM/F12; Gibco) supplemented with 5% horse serum (Invitrogen), 20 ng/mL epidermal growth factor (Merck Millipore), 0.5 μg/mL hydrocortisone (Sigma), 100 ng/mL cholera toxin (Sigma), 10 μg/mL insulin (Sigma), and penicillin/streptomycin (1% v/v) (Gibco).
4.4. AlamarBlue ® Cell Viability Assay
Cells were counted and seeded in 96 well plates at a density of 2 × 10^5 cells/mL for HL-60, 2.5× 10^4 cells/mL for MCF-7, MCF10A and HeLa, 1 × 10^5 cells/mL for HCT116 and HKH-2, all of them in their respective media. The 96 well plates were then treated with a 1:100 dilution of stock concentrations of drugs or EtOH (1% v/v)/DMSO (0.1% v/v) as vehicle control in triplicate. […]

HeLa cells = assay: alamarBlue cell viability assay, HeLa; type: cell-based; conditions: Homo sapiens, 72 h, read-out: HeLa IC50 ± SEM
Source text: as §1, §2, §3, §4, §5
(§6) MCF-10A (human breast epithelial) cell line was obtained from Prof. Mary Meegan, School of Pharmacy, TCD. […]
(§7) Cells were counted and seeded in 96 well plates at a density of 2 × 10^5 cells/mL for HL-60, 2.5× 10^4 cells/mL for MCF-7, MCF10A and HeLa, 1 × 10^5 cells/mL for HCT116 and HKH-2, all of them in their respective media. […]

HCT116 cells = assay: alamarBlue cell viability assay, HCT116; type: cell-based; conditions: Homo sapiens, HCT-116, 72 h, KRas mutant, read-out: HCT116 IC50 ± SEM
Source text: as §1, §2, §3, §4, §5, §6, §7

HKH-2 cells = assay: alamarBlue cell viability assay, HKH-2; type: cell-based; conditions: Homo sapiens, 72 h, mutated KRas disrupted, read-out: HKH-2 IC50 ± SEM
Source text: as §1, §2, §3, §4, §5, §6, §7

Q: What does the source list for `Cl.Cl.N=C(N)Nc1ccc(Oc2cccc(NC(=N)Nc3ccc(Cl)c(C(F)(F)F)c3)c2)cn1` [Compound 2, 1-(4-Chloro-3-(trifluoromethyl)phenyl)-3-(3-((6-guanidinopyridin-3-yl)oxy)phenyl) guanidine dihydrochloride]?
A: IC50 (MCF-7 cells): 4.91 ± 1.04 µM; IC50 (HeLa cells): 4.87 ± 0.27 µM; IC50 (HCT116 cells): 7.29 ± 0.53 µM; IC50 (HKH-2 cells): 8.09 ± 0.78 µM; melting point: 169 to 171 °C

Q: Which IC50 (MCF-7 cells) does the source give for `Cl.N=C(N)Nc1ccc(Oc2cccc(Nc3ccc(Cl)c(C(F)(F)F)c3)c2)cc1` [Compound 3, 1-(4-(3-((4-Chloro-3-(trifluoromethyl)phenyl)amino)phenoxy)phenyl)guanidine hydrochloride] here?
A: 2.02 ± 0.27 µM

Q: What about the IC50 (HeLa cells) of the same compound?
A: 4.33 ± 0.54 µM

Q: What about the IC50 (HCT116 cells) of the same compound?
A: 15.9 ± 2.73 µM

Q: What about the IC50 (HKH-2 cells) of the same compound?
A: 10.3 ± 0.74 µM

Q: What about the melting point of the same compound?
A: 58 to 60 °C

Q: Which IC50 (MCF-7 cells) does the source give for `Cl.N=C(N)Nc1ccc(Oc2cccc(Nc3ccc(Cl)c(C(F)(F)F)c3)c2)cn1` [Compound 4, 1-(5-(3-((4-Chloro-3-(trifluoromethyl)phenyl)amino)phenoxy)pyridin-2-yl)guanidine hydrochloride] here?
A: 3.73 ± 0.35 µM

Q: And the IC50 (HeLa cells)?
A: 1.33 ± 0.08 µM

Q: And the IC50 (HCT116 cells)?
A: 4.59 ± 0.4 µM

Q: And the IC50 (HKH-2 cells)?
A: 2.88 ± 0.15 µM

Q: And the melting point?
A: 89 to 91 °C
